Molecules are shown by their SMILES.

What all share (format): in vivo
In assay [1] the test system is Penicillium italicum (Pi). Kind of assay: Antifungal activity of vapor against Penicillium italicum (Pi) in wounded, infected mandarins. How it is done: Example 2. The antifungal activity of allyl isothiocyanate (AITC) and DADS vapor was tested against Pd and Penicillium italicum (Pi) in mandarins. All samples were wounded by puncturing with a screw. Mandarins were infected by dispensing either 1000 Pd spores or 1000 Pi spores suspended in 10 μL into the wound. The test groups consisted of mandarins that were: uninfected and untreated; uninfected and treated by dipping in a solution of 1 g/L of imazalil; infected with Pd and untreated; infected with Pd and exposed to AITC; infected with Pd and exposed to DADS; infected with Pi and untreated; infected with Pi and exposed to AITC; and infected with Pi and exposed to DADS. Exposure to AITC or DADS consisted of exposing the mandarins for 72 hours to the vapor of 3 mL of the respective compound dispensed in a Petri dish. […] DADS vapor reduced the incidence of Pd mold by 85% and Pi mold by 30% compared to the respective untreated/infected test groups. […] Both AITC and DADS were effective at preventing fungal growth. The inhibition from AITC was approximately 100%, with some changes in visible appearance.

The subject of assay [2] is Colletotrichum gloeosporioides (Cg). As to the kind of experiment: Antifungal activity against Colletotrichum gloeosporioides (Cg) in wounded, infected avocados. To be noted: for reduction of the incidence of Cg mold compared to the untreated test group: vapor of 3 mL in a Petri dish; for incidence of Cg mold: day 5. How it is done: Example 7. The antifungal activity of AITC and DADS vapor against Colletotrichum gloeosporioides (Cg) was tested in avocados. All test pieces were wounded by removing the stem and infected by dispensing 1000 Cg spores suspended in 10 μL of water into the wound. The test groups consisted of avocados that were: untreated and uninfected; untreated and infected; treated by dipping in a solution of 0.1 g/L of prochloraz; exposed to the vapor of 3 mL of AITC disposed in a Petri dish; and exposed to the vapor of 3 mL of DADS disposed in a Petri dish. FIG. 9 quantifies the infection results. AITC vapor reduced the incidence of Cg mold by 97% compared to the untreated test group and 70% compared to the prochloraz treated test group. DADS vapor reduced the incidence of Cg mold by 60% compared to the untreated test group.
Example 8. The antifungal activity of a range of DADS vapor exposure times was tested against Cg in avocados. All test pieces were wounded by removing the stem and infected by dispensing 1000 Cg spores suspended in 10 μL of water into the wound. The test groups consisted of avocados that were: infected and untreated; and exposed to the vapor of 3 mL of DADS in a Petri dish for 24 hours, 48 hours, and 72 hours. FIG. 10 quantifies the infection results. Test group exposed to DADS vapor at all exposure times reduced the incidence of Cg mold compared to the untreated test group. A 24 hour DADS exposure reduced the incidence of Cg mold by 8%. A 48 hour DADS exposure reduced the incidence of Cg mold by 25%. A 72 hour DADS exposure reduced the incidence of Cg mold by 57%.
Example 9. The antifungal activity of a range of AITC and carvacrol vapor exposure times was tested against Cg in avocados. To measure the effect of the various treatments on ripening, durometer shore was taken after 7 days of incubation at ambient temperature and high humidity. All samples were wounded by removing the stem and infected by dispensing 1000 Cg spores suspended in 10 μL of water in the wound. The test groups consisted of avocados that were: infected and left untreated on the benchtop; infected and left untreated under a fume hood; exposed to the vapor of 3 mL of AITC in a Petri dish for 24 hours, 48 hours, and 72 hours; and exposed to the vapor of 3 mL of carvacrol in a Petri dish for 72 hours. FIG. 11 quantifies the infection results. […] All exposure times to AITC vapor reduced the incidence of Cg mold compared to the untreated samples. A 24 hour AITC exposure reduced the incidence of Cg mold by 90%. A 48 hour AITC exposure reduced the incidence of Cg mold by 97%. A 72 hour AITC exposure reduced the incidence of Cg mold by 83%.
Example 10. The antifungal activity of a range of AITC vapor exposure times were tested against Cg in avocados. To measure the effect of the various treatments on ripening, durometer shore was taken after 6 days of incubation at ambient temperature and high humidity. All samples were wounded by removing the stem and infected by dispensing 1000 Cg spores suspended in 10 μL of water in each wound. The test groups consisted of avocados that were: infected and left untreated on the benchtop; infected and left untreated in a fume hood; exposed to the vapor of 3 mL of AITC in a Petri dish for 24 hours, 48 hours, and 72 hours. FIG. 13 quantifies the infection results. […] All exposure times to AITC vapor reduced the incidence of Cg mold compared to the untreated samples.
Example 21. The antifungal activity of avocados exposed to AITC vapor and prochloraz was tested against Cg in avocados. To measure the effect of the various treatments on ripening, durometer shore was taken after 5 days of incubation at ambient temperature (about 20° C. to about 25° C.) and high humidity (about 88% relative humidity to about 93% relative humidity). All samples were wounded by removing the stem and infected by dispensing 1000 Cg spores suspended in 10 μL of water in the wound. […]

For another assay, the system named is Botrytis cinerea (Bc). As to the kind of experiment: Antifungal activity of vapor against Botrytis cinerea (Bc) in grapes. To be noted: Example 12; vapor of 3 mL in a Petri dish for 72 hours. On the procedure:
Example 12. The antifungal activity of AITC and DADS vapor against Botrytis cinerea (Bc) in grapes was tested. All samples were wounded by making a 3 mm deep puncture in the skin. Samples were infected by dispensing 1000 Bc spores suspended in 10 μL of water in the wound. The test groups consisted of grapes that were: uninfected and untreated; infected and untreated; exposed to the vapor of 3 mL of AITC in a Petri dish for 72 hours; and exposed to the vapor of 3 mL of DADS in a Petri dish for 72 hours. FIG. 17 quantifies the infection results. […] Both AITC and DADS vapor were effective at controlling Bc mold. Treatment with AITC can potentially lead to changes in color or flavor of the grapes.

Regarding `C=CCSSCC=C` [DADS, diallyl disulfide], the “reduction of the incidence of Pi mold compared to untreated/infected test group” value in assay [1] (Example 2, 72 hours vapor of 3 mL in a Petri dish) is reported as 30%. In addition, the “reduction of the incidence of Cg mold compared to the untreated test group” value in assay [2] (Example 7, avocados) was 60%. Also, the “reduction of the incidence of Cg mold” value in assay [2] (Example 8, avocados, vapor of 3 mL, 24 hour exposure) is reported as 8%; in assay [2] (Example 8, avocados, vapor of 3 mL, 48 hour exposure), 25%; in assay [2] (Example 8, avocados, vapor of 3 mL, 72 hour exposure) it was 57%. In addition, the “Bc mold in grapes” value in the assay on Botrytis cinerea (Bc) is given as “substantially eliminated Bc mold”.

For the compound `C=CCN=C=S` [AITC, allyl isothiocyanate], the “inhibition of fungal growth (Pi)” value in assay [1] (Example 2, 72 hours vapor of 3 mL) was “approximately 100%”. In assay [2] (Example 7, avocados), the “reduction of the incidence of Cg mold compared to the untreated test group” value is 97%. For the same compound, the “reduction of the incidence of Cg mold compared to the prochloraz treated test group” value in assay [2] (Example 7, avocados, vapor of 3 mL, prochloraz 0.1 g/L dip) worked out at 70%. Besides, the “reduction of the incidence of Cg mold” value in assay [2] (Example 9, avocados, vapor of 3 mL, 24 hour exposure) stood at 90%; in assay [2] (Example 9, avocados, vapor of 3 mL, 48 hour exposure), 97%; in assay [2] (Example 9, avocados, vapor of 3 mL, 72 hour exposure), 83%; in assay [2] (Example 10, avocados, vapor of 3 mL, 24 hour exposure) it was 81.5%; in assay [2] (Example 10, avocados, vapor of 3 mL, 48 hour exposure) it was 93.5%; in assay [2] (Example 10, avocados, vapor of 3 mL, 72 hour exposure) it was 86.5%. The “reduction of the incidence of Cg mold” value in assay [2] (Example 21, printed as 24 hour exposure) was 90%. For the same compound, the “incidence of Cg mold” value in assay [2] (Example 21, 125 μL, 30 minutes) was “reduced the incidence of Cg mold compared to the untreated samples and the prochloraz treated sample”; in assay [2] (Example 22, AITC vapor 30 minutes), “reduced the incidence of Cg mold compared to the untreated samples, the samples treated with coating agent, and the prochloraz treated sample”. Moreover, the “Bc mold in grapes” value in the assay with Botrytis cinerea (Bc) is “substantially eliminated Bc mold”.

Source of the values: patent US20230292776A1, “GAS PHASE TREATMENT OF PRODUCE” (priority 2022, published 2023).
